Results on eight molecules are retold here after PubChem BioAssay (NCI).

Where “and” joins values, the source holds several entries; their conditions need not be identical. Equal entries are not always repeated.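 48-hour exposure; five concentrations; linearly interpolated endpoints. GI50 marks 50% less growth. TGI denotes the concentration required for complete inhibition of growth.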 Bounds are passed on as bounds.

Holding throughout (experiment): NCI-60 cell line screen, 48 h
Experiment [1] concerns HL-60(TB) leukemia.
The subject of experiment [2] is KM12 colon.
In experiment [3] the test system is LOX IMVI melanoma.
The test system of experiment [4] is OVCAR-3 ovarian.
For experiment [5], the system named is NCI-H460 lung.
In experiment [6] the test system is OVCAR-4 ovarian.
The subject of experiment [7] is EKVX NSCLC.
For experiment [8], the system named is COLO 205 colon.
In experiment [9] the test system is U251 CNS.
For experiment [10], the system named is ACHN renal.

In the case of `COc1cc(NC(=O)c2cc3ccccc3cc2O)c(OC)cc1Cl`, the GI50 was 1.32 µM in experiment [1]; 2.52 µM in experiment [2]; 2.47 µM in experiment [3]; 1.41 µM in experiment [4]; 1.9 µM in [5]; 2.12 µM in experiment [6]. The GI50 in experiment [7] was 1.29 µM; in experiment [8], 2.44 µM; in experiment [9], 1.87 µM; in [10], 1.81 µM. Also, the TGI in experiment [1] was 15.3 µM; in [2], 7.25 µM; in experiment [3] it was > 100 µM; in experiment [4], 4.1 µM; in experiment [5], 4.91 µM; in experiment [6] it was 8.21 µM. For the same molecule, the TGI in experiment [7] came to 5.01 µM; in experiment [8], 8.51 µM; in experiment [9], 5.23 µM; in experiment [10], 5.23 µM.

As for `COC(=O)C1OC(SCCN)C(O)C(O)C1O` (stereo not drawn), the TGI in [1], in experiment [2], in [3], in experiment [4], in [5] and in [6] was > 100 µM in each case. The TGI in [7], in experiment [8], in experiment [9] and in experiment [10] was > 100 µM in each case.

For `NC(CCSCCF)C(=O)O` (stereo not drawn), the TGI in [1], in experiment [2], in [3], in experiment [4], in [5] and in experiment [6] was > 100 µM in each case. The TGI in [7], in [8], in experiment [9] and in [10] was > 100 µM each time.

With `COc1cc2ccnc(-c3n[nH]c4cc(OC)c(OC)cc34)c2cc1OC`, the TGI in experiment [1], in experiment [2], in experiment [3], in experiment [4], in [5] and in [6] was > 100 µM in each case. Also, the TGI in experiment [7], in experiment [8], in experiment [9] and in experiment [10] was > 100 µM each time.

As for `CCCCCCCCCCCc1cc(=O)c2c(O)cccc2o1`, the TGI in experiment [1], in experiment [2], in [3], in [4], in [5] and in experiment [6] was > 100 µM throughout. The TGI in experiment [7], in [8], in experiment [9] and in experiment [10] was > 100 µM in each case.

Turning to `COc1ccc(C2C(C(=O)O)=C(CO)Oc3cc4c(cc32)OCO4)c(OC)c1` (stereo not drawn), the TGI in experiment [1], in experiment [3], in [4], in experiment [5], in [6] and in [7] was > 100 µM throughout. For the same molecule, the TGI in experiment [8], in experiment [9] and in [10] was > 100 µM each time.

Take `CC[C@H](C)C(=O)O[C@H]1C[C@@H](C)C=C2C=C[C@H](C)[C@H](CC[C@@H]3C[C@@H](O)CC(=O)O3)[C@H]21`: the GI50 is 15.9 µM and 19.9 µM in experiment [1]; 26.4 µM in experiment [2]; 0.932 µM in experiment [3]; 16.2 µM and 25.2 µM in experiment [4]; 11.4 µM and 5.59 µM in [5]; 10.9 µM and 17.6 µM in experiment [6]. Also, the GI50 was 4.32 µM and 6.61 µM in [7]; 14.6 µM and 15.3 µM in [8]; 3.43 µM and 1.38 µM in experiment [10]. In addition, the TGI is 60.6 µM and 50.6 µM and > 30 µM in experiment [1]; > 100 µM in [2]; 21.3 µM and 6.82 µM and 7.71 µM in experiment [3]; > 100 µM in experiment [4]; > 100 µM in experiment [5]; 61.1 µM and > 55.5 µM and > 30 µM in experiment [6]. Further, the TGI in experiment [7] was > 100 µM; in experiment [8], 51.3 µM and > 52.4 µM and 14.7 µM; in [10] it was 29.8 µM and 6.03 µM and 23.4 µM.

For `COc1ccc(-n2nc(C(=O)NCC(=O)Nc3nc4cc(OC)ccc4s3)c3ccccc3c2=O)cc1`, the GI50 in [1] was > 100 µM; in experiment [3] it was 0.413 µM; in [4] it was 0.85 µM; in experiment [5] it was 0.556 µM; in experiment [6] it was 0.434 µM; in [7] it was 1.96 µM. Besides, the GI50 in experiment [8] is 0.477 µM; in [9], 0.448 µM; in [10], 1.1 µM. The TGI in experiment [1] is > 100 µM; in experiment [3] it was 1.97 µM; in experiment [6], 2.57 µM; in experiment [7] it was 14.8 µM; in [8] it was 3.89 µM; in experiment [9], 1.73 µM. In experiment [10], this molecule displayed a TGI of 8.7 µM.
